The series in a line: Tolerability of intravenous infusion rates in healthy subjects. Format: in vivo, human. As to conditions: i.v., all infusion rates used (100, 200, 600 mg/min). The source says: The following results were obtained here. 1.

The text below walks through data of patent US6545039B1 (Viatris GmbH & Co. KG, priority 1999, dated 2003).

In the case of `O=C(O)CCCCC1CCSS1` (stereo not drawn) [α-lipoic acid], the “tolerability of infusion rate” value is “excellently tolerated”.
